Our source for the Kd values is PMC9274004, “Deciphering the Molecular Interaction Between the Adhesion G Protein-Coupled Receptor ADGRV1 and its PDZ-Containing Regulator PDZD7” (Frontiers in Molecular Biosciences, 2022).

The target in one assay is T1, PDZD7 N-PDZ1ext (Mus musculus, UniProt E9Q9W7).
T1 construct: including the N-terminus of the protein (N-PDZ1ext construct; M1-E192); GST (followed by TEV site) (N, cleaved yes); made in house; host or cells: E. coli BL21 DE3
T1 sequence (E9Q9W7 1-192): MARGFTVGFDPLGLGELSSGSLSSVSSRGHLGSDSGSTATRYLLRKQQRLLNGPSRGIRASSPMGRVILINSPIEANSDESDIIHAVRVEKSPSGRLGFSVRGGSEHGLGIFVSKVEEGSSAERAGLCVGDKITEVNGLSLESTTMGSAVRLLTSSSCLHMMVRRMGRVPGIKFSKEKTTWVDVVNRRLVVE
The assay can be described thus: NMR titration of N-PDZ1ext with ADGRV1 ligands. In kind it is binding, murine. To be noted: NMR titration, 25°C; SD over at least ten shifting peaks; read-out: Kd (Peptide). The procedure:
(§1) All experiments were recorded at 25°C on a Bruker 800 MHz spectrometer equipped with a triple resonance ^1H{^13C/^15N} cryoprobe. The ^1H, ^15 N and ^13C backbone resonances assignment of PDZ1ext was carried out using 3D HNCA, HNCACB, HNCO, HNCOCA experiments (Tris HCl buffer adjusted to pH 6). The 2D ^1H-^15N HSQC spectra used to compare PDZ1, PDZ1ext, PDZ2 and PDZ2ext were recorded in Tris HCl pH 7.5 (50 mM). The 2D ^1H-^15N HSQC spectra used to compare PDZ1ext, PDZ2ext and P1P2 were recorded in Phosphate Buffer pH 6.5 (50 mM). Titration experiments of PDZ1 (WT), PDZ1ext (WT) and PDZ1ext (G103R) against ADGRV1pbm peptide were performed in Tris HCl pH 7.5 (50 mM). Averaged Chemical Shifts Perturbations (CSP) were calculated as: Δδavg = ((Δδ(^1H))^2+(Δδ(^15N)*0.159)^2)^½. For the determination of dissociation constants (Kd) of each peptide/PDZ interaction, averaged CSP δavg was plotted as a function of the molar ratio (peptide/PDZ) for several peaks and fitted using nonlinear regression and assuming a simple complex formation model.
The P1P2 tandem of PDZD7 is preceded by 80 residues with no predicted secondary or tertiary structure, but which could contribute to the interaction with ADGRV1. […] We first aimed at identifying potential secondary structures in both PDZD7 N-terminal region and ADGRV1 cytoplasmic domain. To this end, we produced both an extended PDZ1ext construct, including the N-terminus of the protein (N-PDZ1ext construct; M1-E192) and the whole ADGRV1 cytoplasmic domain of 152 residues.
On the overlay of PDZ1ext and N-PDZ1ext HSQC spectra, there is no significant chemical shift changes on PDZ1ext due to the presence of the N-terminal region (CSPs <0.04 ppm). […] We used the entire cytoplasmic domain of ADGRV1 as partner of PDZD7 in NMR and fluorescence titrations experiments. […] Finally, we measured Kd values in the few micromolar range between the tandem P1P2 and the whole cytoplasmic domain and the last 13 residues of ADGRV1 by fluorescence experiments.

Another assay has as its target T2, PDZD7 PDZ1ext G103R (Mus musculus, UniProt E9Q9W7, G103R).
T2 construct: PDZ1 (81-167), PDZ1ext (81-192); GST (followed by TEV site) (N, cleaved yes); made in house; host or cells: E. coli BL21 DE3
The experiment in a line: NMR titration of PDZ1ext G103R. Type of assay: binding, murine. To be noted: Tris HCl pH 7.5 (50 mM), 25°C. As to the method: as §1, with “For the determination of dissociation constants (Kd) of each peptide/PDZ interaction, averaged CSP δavg was plotted as a function of the molar ratio (peptide/PDZ) for several peaks and fitted using nonlinear regression and assuming a simple complex formation model.” left out
We characterized the potential effect of the two substitutions on the interaction with ADGRV1pbm using a panel of techniques. First, we confirmed by NMR that PDZ1ext G103R is well-folded, with significant perturbations (CSPs >0.04 ppm) only detected for residues spatially close to the G103R mutation (Supplementary Figure S10). […] We calculated Rg = 28 Å and Dmax = 118.2 Å for the mutant tandem without ligand, and Rg = 27.7 Å and Dmax = 123.6 Å in presence of ADGRV1pbm peptide. […]

Where no end group is shown, it is not given here.

T2 sequence (E9Q9W7 81-192 G103R): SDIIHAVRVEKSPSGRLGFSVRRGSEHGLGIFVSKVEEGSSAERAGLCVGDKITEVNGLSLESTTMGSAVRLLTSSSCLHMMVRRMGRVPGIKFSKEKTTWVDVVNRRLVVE

A word on the Kd: it is a measure of binding affinity in units of concentration. Take VELRRIPIADTHL [ADGRV1pbm]: the figures for the dissociation constant (Kd) on PDZD7 N-PDZ1ext and at PDZD7 PDZ1ext G103R were 270 ± 21 µM and 1190 µM, respectively.
